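Compound exposure: 48 hours, 5 concentrations, 96-well plates. Here, GI50 denotes the concentration required for 50% inhibition of growth. TGI marks complete inhibition of growth.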
Experiments:
Assay in all cases: NCI anticancer screen, dose series, 48 h
A549 NSCLC = tested on: A549 NSCLC
BT-549 breast = tested on: BT-549 breast
COLO 205 colon = tested on: COLO 205 colon
EKVX NSCLC = tested on: EKVX NSCLC
HOP-92 NSCLC = tested on: HOP-92 NSCLC
IGROV1 ovarian = tested on: IGROV1 ovarian
OVCAR-3 ovarian = tested on: OVCAR-3 ovarian
RPMI-8226 leukemia = tested on: RPMI-8226 leukemia
SF-539 CNS = tested on: SF-539 CNS
UACC-257 melanoma = tested on: UACC-257 melanoma

## Cn1cc(-c2ccc3cc(-c4ccc(CC(=O)Nc5cc(C(C)(C)C)on5)cc4)cnc3c2)cn1
A549 NSCLC
  GI50: 1.72 µM
  TGI: > 100 µM
BT-549 breast
  GI50: 2.08 µM
  TGI: 31.8 µM
COLO 205 colon
  GI50: 2.95 µM
  TGI: > 100 µM
EKVX NSCLC
  GI50: 0.624 µM
  TGI: 3.45 µM
HOP-92 NSCLC
  GI50: 4.23 µM
  TGI: 26 µM
IGROV1 ovarian
  GI50: 0.356 µM
  TGI: 3.52 µM
OVCAR-3 ovarian
  GI50: 2.49 µM
  TGI: 12.7 µM
RPMI-8226 leukemia
  GI50: 2.34 µM
  TGI: > 100 µM
SF-539 CNS
  GI50: 0.339 µM
  TGI: 14.4 µM

## C=C1C(=O)O[C@@H]2[C@H](O)[C@@H](C)[C@@H]3C=CC(=O)[C@@]3(C)[C@@H](OC(=O)/C(C)=C/C)[C@H]12
A549 NSCLC
  TGI: 13.4 µM
COLO 205 colon
  TGI: 1.11 µM
EKVX NSCLC
  TGI: 1.93 µM
HOP-92 NSCLC
  TGI: 1.78 µM
IGROV1 ovarian
  TGI: 2.02 µM
OVCAR-3 ovarian
  TGI: 1.69 µM
RPMI-8226 leukemia
  TGI: 0.473 µM
SF-539 CNS
  TGI: 1.96 µM
UACC-257 melanoma
  TGI: 1.87 µM

## Cc1c(N=Nc2ccccc2)c(C)n(C2OC(CO)C(O)C(O)C2O)c(=S)c1C#N (stereo not given)
A549 NSCLC
  TGI: > 100 µM
BT-549 breast
  TGI: 45.8 µM
COLO 205 colon
  TGI: > 100 µM
HOP-92 NSCLC
  TGI: 48.9 µM
IGROV1 ovarian
  TGI: > 100 µM
OVCAR-3 ovarian
  TGI: 62.9 µM
RPMI-8226 leukemia
  TGI: > 100 µM
SF-539 CNS
  TGI: 57.8 µM
UACC-257 melanoma
  TGI: > 100 µM

## CCOC(=O)C(Cc1c[nH]c2cc([N+](=O)[O-])ccc12)NS(=O)(=O)c1ccc2ccccc2c1 (stereo not given)
A549 NSCLC
  TGI: > 100 µM
COLO 205 colon
  TGI: 32.1 µM
EKVX NSCLC
  TGI: 78.1 µM
HOP-92 NSCLC
  TGI: 51.6 µM
IGROV1 ovarian
  TGI: 48 µM
OVCAR-3 ovarian
  TGI: 31.5 µM
RPMI-8226 leukemia
  TGI: > 100 µM
SF-539 CNS
  TGI: 32.9 µM
UACC-257 melanoma
  TGI: 28.8 µM

## NC(CSSCC(N)=NCC12CC3CC(CC(C3)C1)C2)=NCC12CC3CC(CC(C3)C1)C2
A549 NSCLC
  TGI: 31.3 µM
COLO 205 colon
  TGI: 52.5 µM
HOP-92 NSCLC
  TGI: 32.7 µM
IGROV1 ovarian
  TGI: 40.9 µM
OVCAR-3 ovarian
  TGI: 35.6 µM
RPMI-8226 leukemia
  TGI: 6.17 µM
SF-539 CNS
  TGI: 34.3 µM
UACC-257 melanoma
  TGI: 30.5 µM

## CC1(C)CCC(C)(C)C1C(=O)NC(O)C(=O)O (stereo not given)
A549 NSCLC
  TGI: > 100 µM
COLO 205 colon
  TGI: > 100 µM
EKVX NSCLC
  TGI: > 100 µM
IGROV1 ovarian
  TGI: > 100 µM
RPMI-8226 leukemia
  TGI: > 100 µM
SF-539 CNS
  TGI: > 100 µM

## N=c1c2c(=S)n(-c3ccccc3)c(=S)n(-c3ccccc3)c2nc(SCCN2CCCC2)n1-c1ccccc1
A549 NSCLC
  TGI: 8.5 µM
BT-549 breast
  TGI: 5.13 µM
COLO 205 colon
  TGI: 3.17 µM
EKVX NSCLC
  TGI: 7.23 µM
HOP-92 NSCLC
  TGI: 3.48 µM
IGROV1 ovarian
  TGI: 3.52 µM
OVCAR-3 ovarian
  TGI: 3.38 µM
SF-539 CNS
  TGI: 9.71 µM
UACC-257 melanoma
  TGI: 3.06 µM

## O=C1CC(c2ccccc2)=Nc2ccccc2N1
A549 NSCLC
  TGI: > 100 µM
COLO 205 colon
  TGI: > 100 µM
EKVX NSCLC
  TGI: > 100 µM
HOP-92 NSCLC
  TGI: > 100 µM
IGROV1 ovarian
  TGI: > 100 µM
OVCAR-3 ovarian
  TGI: > 100 µM
SF-539 CNS
  TGI: > 100 µM
UACC-257 melanoma
  TGI: > 100 µM

## O=C(CSc1nc(-c2ccccc2)c(-c2ccccc2)[nH]1)N/N=C/c1ccc(O)cc1
A549 NSCLC
  TGI: 69.5 µM
COLO 205 colon
  TGI: 35.1 µM
EKVX NSCLC
  TGI: 84.4 µM
HOP-92 NSCLC
  TGI: 84.9 µM
IGROV1 ovarian
  TGI: 95.7 µM
OVCAR-3 ovarian
  TGI: 48.4 µM
RPMI-8226 leukemia
  TGI: 60.6 µM
SF-539 CNS
  TGI: 40.5 µM
UACC-257 melanoma
  TGI: > 100 µM

## O=C(CCC=C(S(=O)(=O)c1ccccc1)S(=O)(=O)c1ccccc1)c1ccccc1
A549 NSCLC
  TGI: 49.6 µM
BT-549 breast
  TGI: 18.2 µM
COLO 205 colon
  TGI: 19.8 µM
EKVX NSCLC
  TGI: 30.5 µM
HOP-92 NSCLC
  TGI: 30.6 µM
IGROV1 ovarian
  TGI: 31 µM
OVCAR-3 ovarian
  TGI: 17.4 µM
SF-539 CNS
  TGI: 6.57 µM
UACC-257 melanoma
  TGI: 23.3 µM

## NC1=NS(=O)(=O)Nc2nc(-c3ccccc3)[nH]c21
A549 NSCLC
  TGI: > 100 µM
COLO 205 colon
  TGI: > 100 µM
EKVX NSCLC
  TGI: > 100 µM
HOP-92 NSCLC
  TGI: > 100 µM
IGROV1 ovarian
  TGI: > 100 µM
OVCAR-3 ovarian
  TGI: > 100 µM
RPMI-8226 leukemia
  TGI: > 100 µM
SF-539 CNS
  TGI: > 100 µM
UACC-257 melanoma
  TGI: > 100 µM

## CC(=O)Nc1ccc2[nH]c(C(=O)N3CC(CCl)c4c3cc([N+](=O)[O-])c3ccccc43)cc2c1 (stereo not given)
A549 NSCLC
  TGI: 1.15 µM
BT-549 breast
  TGI: > 100 µM
COLO 205 colon
  TGI: > 100 µM
EKVX NSCLC
  TGI: > 89.4 µM
HOP-92 NSCLC
  TGI: > 43.7 µM
IGROV1 ovarian
  TGI: > 53 µM
OVCAR-3 ovarian
  TGI: > 100 µM
RPMI-8226 leukemia
  TGI: > 27.8 µM
UACC-257 melanoma
  TGI: > 100 µM

## Cc1csc2c1-n1cccc1C2=O
A549 NSCLC
  TGI: > 100 µM
BT-549 breast
  TGI: > 100 µM
COLO 205 colon
  TGI: > 100 µM
EKVX NSCLC
  TGI: > 100 µM
IGROV1 ovarian
  TGI: > 100 µM
OVCAR-3 ovarian
  TGI: > 100 µM
RPMI-8226 leukemia
  TGI: > 100 µM
UACC-257 melanoma
  TGI: > 100 µM

## O=[N+]([O-])C(/C=N/Nc1ccccc1)/C=N/Nc1ccccc1
A549 NSCLC
  TGI: > 100 µM
COLO 205 colon
  TGI: > 100 µM
EKVX NSCLC
  TGI: > 100 µM
HOP-92 NSCLC
  TGI: > 100 µM
IGROV1 ovarian
  TGI: > 100 µM
OVCAR-3 ovarian
  TGI: > 100 µM
SF-539 CNS
  TGI: > 100 µM
UACC-257 melanoma
  TGI: > 100 µM

## C=C(C)COC1CCCCO1 (stereo not given)
A549 NSCLC
  TGI: > 100 µM
BT-549 breast
  TGI: > 100 µM
COLO 205 colon
  TGI: > 100 µM
EKVX NSCLC
  TGI: > 100 µM
IGROV1 ovarian
  TGI: > 100 µM
OVCAR-3 ovarian
  TGI: > 100 µM
RPMI-8226 leukemia
  TGI: > 100 µM
SF-539 CNS
  TGI: > 100 µM
UACC-257 melanoma
  TGI: > 100 µM

## O=C(NC(=O)c1cc(-c2ccccc2)n[nH]1)c1ccccc1
A549 NSCLC
  TGI: > 100 µM
BT-549 breast
  TGI: > 100 µM
COLO 205 colon
  TGI: > 100 µM
EKVX NSCLC
  TGI: > 100 µM
HOP-92 NSCLC
  TGI: > 100 µM
IGROV1 ovarian
  TGI: > 100 µM
OVCAR-3 ovarian
  TGI: > 100 µM
SF-539 CNS
  TGI: > 100 µM
UACC-257 melanoma
  TGI: > 100 µM

## c1csc(-c2ccsc2-c2cccs2)c1
A549 NSCLC
  TGI: 61 µM
COLO 205 colon
  TGI: > 100 µM
EKVX NSCLC
  TGI: > 100 µM
HOP-92 NSCLC
  TGI: > 100 µM
IGROV1 ovarian
  TGI: > 100 µM
OVCAR-3 ovarian
  TGI: > 100 µM
RPMI-8226 leukemia
  TGI: 66.8 µM
SF-539 CNS
  TGI: > 100 µM
UACC-257 melanoma
  TGI: > 100 µM

## O=C(Nc1cccc([N+](=O)[O-])c1)c1n[nH]n(-c2cccc([N+](=O)[O-])c2)c1=O
A549 NSCLC
  TGI: > 100 µM
COLO 205 colon
  TGI: > 100 µM
EKVX NSCLC
  TGI: > 100 µM
IGROV1 ovarian
  TGI: > 100 µM
RPMI-8226 leukemia
  TGI: > 100 µM
SF-539 CNS
  TGI: > 100 µM
UACC-257 melanoma
  TGI: > 100 µM

## COC(=O)c1c(C#N)c(N)nc2c1CCC2
A549 NSCLC
  TGI: > 100 µM
BT-549 breast
  TGI: > 100 µM
COLO 205 colon
  TGI: > 100 µM
EKVX NSCLC
  TGI: > 100 µM
HOP-92 NSCLC
  TGI: > 100 µM
IGROV1 ovarian
  TGI: > 100 µM
RPMI-8226 leukemia
  TGI: > 100 µM
UACC-257 melanoma
  TGI: > 100 µM

## COc1cc(OC)cc(-c2n/c(=C\c3c(O)[nH]c4ccc(OC)cc34)cc3c2=Nc2ccccc2-3)c1
A549 NSCLC
  GI50: 11.6 µM
  TGI: 26.1 µM
BT-549 breast
  GI50: 2.19 µM
  TGI: 4.7 µM
EKVX NSCLC
  GI50: 25.2 µM
  TGI: 80.9 µM
IGROV1 ovarian
  GI50: 25.2 µM
  TGI: 68.4 µM
OVCAR-3 ovarian
  GI50: 3.45 µM
  TGI: 9.67 µM
RPMI-8226 leukemia
  GI50: 8.88 µM
  TGI: 72.7 µM
SF-539 CNS
  GI50: 10.4 µM
  TGI: 25.4 µM
UACC-257 melanoma
  GI50: 23.3 µM
  TGI: 49.8 µM

## CSc1ccn(C2CC(F)C(CO)O2)c(=O)n1 (stereo not given)
A549 NSCLC
  TGI: > 100 µM
BT-549 breast
  TGI: > 100 µM
COLO 205 colon
  TGI: > 100 µM
EKVX NSCLC
  TGI: > 100 µM
HOP-92 NSCLC
  TGI: > 100 µM
IGROV1 ovarian
  TGI: > 100 µM
OVCAR-3 ovarian
  TGI: > 100 µM
SF-539 CNS
  TGI: > 100 µM
UACC-257 melanoma
  TGI: > 100 µM
